From PubChem BioAssay (NCI)
Several values for one entry are separate records, joined by “and”; a condition that tells them apart may be missing. Equal values may be shown once.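 All cell lines were grown in 96-well plates and treated with compound for 48 hours. GI50 = concentration required for 50% inhibition of growth. Definition used: TGI = concentration required for complete inhibition of growth.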 Where a SMILES comes first, the peptide text is derived from it. Bridges are numbered along the chain shown (N, C = ends).

Assays:
Assay in all cases: DTP human tumour cell line panel, 48 h
SK-OV-3 ovarian = system: SK-OV-3 ovarian
SF-539 CNS = system: SF-539 CNS
UO-31 renal = system: UO-31 renal
HT29 colon = system: HT29 colon
ACHN renal = system: ACHN renal
A498 renal = system: A498 renal
UACC-257 melanoma = system: UACC-257 melanoma
K-562 leukemia = system: K-562 leukemia
NCI-H522 lung = system: NCI-H522 lung
SN12C renal = system: SN12C renal

| Compound | GI50 (SK-OV-3 ovarian) [µM] | TGI (SK-OV-3 ovarian) | GI50 (SF-539 CNS) | TGI (SF-539 CNS) | GI50 (UO-31 renal) | TGI (UO-31 renal) | GI50 (HT29 colon) | TGI (HT29 colon) | GI50 (ACHN renal) | TGI (ACHN renal) | TGI (A498 renal) [µM] | TGI (UACC-257 melanoma) | GI50 (K-562 leukemia) | GI50 (NCI-H522 lung) | TGI (NCI-H522 lung) | GI50 (SN12C renal) [µM] | TGI (SN12C renal) | TGI (K-562 leukemia) | GI50 (UACC-257 melanoma) | GI50 (A498 renal) [µM] |
| --- | --- | --- | --- | --- | --- | --- | --- | --- | --- | --- | --- | --- | --- | --- | --- | --- | --- | --- | --- | --- |
| O=C1NC(c2cccc3ccccc23)Nc2ccccc21 (configuration not stated) | 0.0316 | 0.252 µM | 0.0105 µM | 0.0329 µM and 0.165 µM | 0.0362 µM | > 100 µM | 0.0256 µM and 0.0306 µM | 1.14 µM and 0.203 µM | 0.0383 µM | > 54.7 µM | 0.0848 | 32.6 µM | 0.00758 µM | 0.0194 µM and 0.0497 µM | 0.0765 µM and 0.25 µM | 0.0198 | > 100 µM | – | – | – |
| CC(=O)OC(C)(C)C[N+](=O)[O-] | – | > 100 µM | – | > 100 µM | – | > 100 µM | – | > 100 µM | – | > 100 µM | – | > 100 µM | – | – | > 100 µM | – | > 100 µM | > 100 µM | – | – |
| CC1(C)C=C(N2CCN(C3=CC(C)(C)NC(C)(C)C3)CC2)CC(C)(C)N1 | – | > 100 µM | – | > 100 µM | – | > 100 µM | – | > 100 µM | – | > 100 µM | > 100 | > 100 µM | – | – | > 100 µM | – | > 100 µM | > 100 µM | – | – |
| CC(O)(c1ccc(OCCC[N+](C)(C)C)cc1)C(C)(O)c1ccc(OCCC[N+](C)(C)C)cc1 (configuration not stated) | – | > 100 µM | – | > 100 µM | – | > 100 µM | – | > 100 µM | – | > 100 µM | > 100 | > 100 µM | – | – | > 100 µM | – | > 100 µM | > 100 µM | – | – |
| Cc1ccc2c(c1)C(=O)/C(=C/c1cccc(OCC(=O)c3ccc(Cl)cc3)c1)CS2 | 25.1 | 90.9 µM | 17.8 µM | 36.6 µM | 2.93 µM | 18.3 µM | 2.81 µM | 7.25 µM | 8.72 µM | 21.2 µM | – | 33.3 µM | 2.45 µM | 3.94 µM | 18.2 µM | 14.6 | 62.7 µM | 8.2 µM | 13.9 µM | – |
| CCC1=CCC(P(=O)(c2ccccc2)c2ccccc2)CC1C (configuration not stated) | – | > 100 µM | – | > 100 µM | – | 60.5 µM | – | > 100 µM | – | – | > 100 | > 100 µM | – | – | 47.4 µM | – | > 100 µM | > 100 µM | – | – |
| CCCCCCCCC1C(C)c2c([nH]c3ccccc23)C2C(=O)N(c3ccccc3)C(=O)C21 (configuration not stated) | – | 51.1 µM | – | 32.7 µM | – | 28.5 µM | – | 19.1 µM | – | 23.7 µM | 36.9 | – | – | – | – | – | 23.8 µM | 14.7 µM | – | – |
| Cc1cc(=O)n2c(cc3cccccc32)n1 | – | – | – | > 100 µM | – | > 100 µM | – | > 100 µM | – | > 100 µM | > 100 | > 100 µM | – | – | > 100 µM | – | > 100 µM | > 100 µM | – | – |
| Cc1nccc2c3ccc(OCc4cn(-c5ccc(Br)cc5)nn4)cc3n(CCCc3ccccc3)c12 | 31.2 | > 100 µM | 1.72 µM | 3.4 µM | 1.41 µM | 3.01 µM | 2.9 µM | > 100 µM | 1.23 µM | 3.52 µM | > 100 | 4.4 µM | – | – | – | – | – | – | 2.06 µM | > 100 |
| CCCc1nn(C)c(CCC(=O)N(Cc2ccccc2)Cc2ccccc2)c1CC | – | > 100 µM | – | > 100 µM | – | > 100 µM | – | > 100 µM | – | > 100 µM | > 100 | > 100 µM | – | – | > 100 µM | – | > 100 µM | – | – | – |
| CC1=C(C(=O)Nc2ccccc2C)C(c2ccccc2O)C(C(=O)Nc2ccccc2C)=C(C)N1 | – | – | – | 36.5 µM | – | 38.4 µM | – | 64.3 µM | – | 47.9 µM | 64.8 | 49.4 µM | – | – | – | – | 44 µM | > 100 µM | – | – |
| CCOC(=O)Nc1cc2c(c(N)n1)N=C(c1ccccc1)CN2 | 0.0207 | 17.5 µM | – | – | 0.107 µM | – | < 0.0001 µM | – | < 0.0001 µM | 21.6 µM | 22.2 | 50.4 µM | – | < 0.0001 µM | < 0.0001 µM | – | 37.8 µM | – | – | – |
| CC(=O)OCC1OC([S-])C(OC(C)=O)C(OC(C)=O)C1OC(C)=O.[Au+].c1ccc(CN2[CH-]N(Cc3ccccc3)C(c3ccccc3)=C2c2ccccc2)cc1 | – | 26.3 µM and 5.17 µM | 2.96 µM and 0.855 µM | 10.4 µM and 3.81 µM | 1.83 µM and 0.445 µM | 4.31 µM and 1.99 µM | 3.38 µM and 1.02 µM | 12.6 µM and 4.47 µM | 1.87 µM and 0.674 µM | 3.62 µM and 2.72 µM | – | 9.22 µM and 3.12 µM | 2.59 µM and 0.397 µM | 2.03 µM and 0.551 µM | 4.7 µM and 1.56 µM | – | 5.08 µM and 1.18 µM | 7.8 µM and 15.1 µM | 2.26 µM and 1 µM | – |
| CC1OC(OC2C(O)C(OCCc3ccc(O)c(O)c3)OC(CO)C2OC(=O)/C=C/c2ccc(O)c(O)c2)C(O)C(O)C1O (configuration not stated) | > 100 | > 100 µM | 22.9 µM | 40.9 µM | 23.7 µM | 57.6 µM | – | – | 18.9 µM | 37 µM | – | > 100 µM | 15.5 µM | > 100 µM | > 100 µM | 20.5 | 36.8 µM | > 100 µM | > 100 µM | – |
| Nc1nc(N)c(CCCCc2ccccc2)c(/C=C/c2ccc([N+](=O)[O-])cc2)n1 | – | 39.1 µM | – | 5.62 µM | – | 8.51 µM | – | 16.2 µM | – | 18.2 µM | – | 22.2 µM | – | – | 5.57 µM | – | 8.96 µM | – | – | – |
| COc1ccccc1-c1ccc2c(N)c(C(=O)c3ccc4c(c3)OCO4)sc2n1 | 5.97 | 18.2 µM | 4.94 µM | 17 µM | 4.12 µM | 16.7 µM | – | – | 4.07 µM | 13.5 µM | 13.8 | 22.7 µM | 3.74 µM | 4.32 µM | 19.7 µM | 6.14 | 24.5 µM | > 100 µM | 6.1 µM | 2.39 |
| COC(=O)/C(=N\Nc1nc(=S)[nH]n1N)C(C#N)c1ccc(Cl)cc1 (configuration not stated) | – | > 100 µM | – | > 100 µM | – | > 100 µM | – | > 100 µM | – | > 100 µM | > 100 | > 100 µM | – | – | – | – | > 100 µM | – | – | – |
| CCC(C)C1NC(=O)C(CC(C)C)NC(=O)C(C(C)C)NC(=O)C2CSSCC(NC1=O)C(=O)N2 (configuration not stated) (cyclo(CCVLI); disulfide 1-2; configuration not given here) | – | – | – | 0.316 µM | – | 5.84 µM | – | 0.356 µM | – | 1.82 µM | – | 0.279 µM | – | – | 0.355 µM | – | 0.351 µM | – | – | – |
| O=c1oc2c(O)c(O)cc3c(=O)oc4c(O)c(O)cc1c4c23 | – | > 100 µM | – | – | – | > 100 µM | > 100 µM | > 100 µM | – | > 100 µM | > 100 | > 100 µM | > 100 µM | – | 43.1 µM | – | > 100 µM | > 100 µM | > 100 µM | – |
